# Reference: US20240390349A1, “DOSING REGIMEN OF CAPSID INHIBITOR” (priority 2023, published 2024)
# Read-outs that look alike come from different tables or passages of the source.
# Assays:
# [1] = system: HIV-1 capsid LEN resistance mutations; details: for Fold decrease in LEN susceptibility: 1 participant
# Description: In HTE participants (Example 4), the resistance analysis population (RAP) during the oral bridging period included 9 participants (16%, 9/57) who met the criteria for resistance analysis, including 4 participants also present in the previous analysis. […];
# HIV-1 (MT-4 cells) = assay: Inhibitory quotient 4 (4-fold in vitro protein-adjusted 95% effective concentration, MT-4 cells); format: cell-based; details: 4-fold in vitro protein binding-adjusted 95% effective concentration
# [2] = human, in vivo, sc
compound,measurement,setting,value
"CC(C)(C#Cc1ccc(-c2ccc(Cl)c3c(NS(C)(=O)=O)nn(CC(F)(F)F)c23)c([C@H](Cc2cc(F)cc(F)c2)NC(=O)Cn2nc(C(F)(F)F)c3c2C(F)(F)[C@@H]2C[C@H]32)n1)S(C)(=O)=O [LEN, N—((S)-1-(3-(4-chloro-3-(methylsulfonamido)-1-(2,2,2-trifluoroethyl)-1H-indazol-7-yl)-6-(3-methyl-3-(methylsulfonyl)but-1-yn-1-yl)pyridin-2-yl)-2-(3,5-difluorophenyl)ethyl)-2-((3bS,4aR)-5,5-difluoro-3-(trifluoromethyl)-3b,4,4a,5-tetrahydro-1H-cyclopropa [3,4]cyclopenta [1,2-c]pyrazol-1-yl) acetamide]",Fold decrease in LEN susceptibility,[1]; K70N+N74K,289 fold
same,Mean fold decrease in LEN susceptibility,"[1]; Q67H or Q67Q/H, 3 participants",5.6 fold
same,Fold decrease in LEN susceptibility,[1]; Q67H+K70R+T107T/N,393 fold
same,Plasma concentration corresponding to inhibitory quotient 4 (IQ4),HIV-1 (MT-4 cells),15.5 ng/mL
same,Lower 90% CI of LEN predose concentration,[2],56.2 ng/mL
same,Mean LEN predose plasma concentration,[2],74.4 ng/mL
